Where two headings read alike, the source gives them in different places.
Legend:
Type in all cases: cell-based, mouse
[1] = tested on: bone marrow stromal cells (BMSC), first passage (P1); assay: Alkaline phosphatase assay (NBT/BCIP staining) of primary BMSC (P1) in osteogenic media; conditions: primary BMSC P1, four days in osteogenic media; ATO 10 μM, Cholecalciferol 10 μM, Lovastatin 1 μM, NP101 diluted 1:1 or 1:10 (FIG. 1)
Description: (§1) Mesenchymal stem cells isolation: Bone marrow stromal cells were isolated from six to eight weeks old wild type mice. Femurs and tibias were dissected from surrounding tissues. The epiphyseal growth plates were removed and the marrow was collected by flushing with modified essential medium (MEM) containing 100 U/ml Penicillin, 100 μg/ml streptomycin and 10% fetal bovine serum with a 25 G needle. Single cell suspensions were prepared by passing the cell clumps through an 18G needle followed by filtration through a 70-μm cell strainer.
(§2) After cells reached confluence, medium was replaced with osteogenic differentiation medium (OM). Osteogenic differentiation medium (OM) consists of: DMEM, 10% FBS, Pen-Strep (1×), L-Glutamine (2 mM), 10 mM beta glycerol phosphate and 50 μg/ml ascorbic acid. Duplicate wells were exposed to differentiation media without any agent (control), single agent (Cholecalciferol, ATO or Lovastatin) or Nosto-101 combination agents. Media replacement occurred every 2-3 days with fresh differentiation medium (made each time during feeding) with or without single agent or Nosto-101.
(§3) Alkaline phosphatase assay: Cells were stained after 4 days exposure in OM differentiation medium for Alkaline Phosphatase (AP) assay. This is a colorimetric assay in which NBT (nitro-blue tetrazolium chloride) and BCIP (5-Bromo-4-chloro-3′-indolyphosphate p-toluidine salt) yields insoluble purple precipitate when reacted with alkaline phosphatase enzyme.
After 4 days of culturing cells in OM media, cells were fixed with 4% paraformaldehyde and then washed once with PBS. One ml of One-step NBT/BCIP staining solution (Thermo Fisher) was added per well and the cells were then incubated in the dark for 30 min to 1 h and checked for color development. The reaction was quickly stopped by removing NBT/BCIP and adding water.

[2] = tested on: BMSC cells primed for osteogenesis; conditions: BMSC primed with LCN2 and PRL, then osteogenic media with agent; ATO 10 μM, Cholecalciferol 10 μM, Lovastatin 1 μM, NP101 diluted 1:1 or 1:10 (FIG. 2)
Description: as §1
Priming cells for osteogenseis: An aliquot of cells was diluted 1:1 with 0.04% trypan blue in PBS and viable cells were plated at a density of 2×10^6 cells/cm^2 and in a 35-mm culture dish and exposed to recombinant mouse Prolactin (PRL) (1 ng/ml) and/or Lacritin 2(LCN2) (18 ng/ml) in Alpha MEM media with 20% FBS, L-Glutamine 2 mM and Pen-Strep (1×) for three passages to prime cells for osteogenesis. After the third passage, 50,000 bone marrow stromal cells per well were plated in a 24 well plate in Alpha MEM 20% FBS, L-Glutamine (4 mM), PenStrep (1×) and MEM Non-Essential Amino Acids (1×).
as §2
as §3, with “enzyme. […]” for “enzyme.”

[3] = tested on: Alkaline Phosphatase gene expression in BMSC culture; conditions: four days in OM media, control = 1.00
Description: as §1, §2
qRT-PCR: Total RNA was isolated first with Trizol (Invitrogen) and then with RNeasy Kit (Qiagen). First strand cDNA was generated using a High capacity cDNA reverse transcriptase kit (Abcam). qPCR was performed using a Biorad cycler at 40 cycles of 95° C. for 5 seconds and at 60° C. for 30 seconds. PCR product was detected using SybrGreen (BioRad). Primers used for amplifications were Actin: Forward 5′-CACAGCTTCTTTGCAGCTCCT-3′ (SEQ ID NO:1), Reverse 5′-CGT CAT CCA TGG CGA ACT G-3′ (SEQ ID NO:2); Alk Phos: Forward 5′-CACGCGATGCAACACTCAGG-3′ (SEQ ID NO:3), Reverse 5′-GCATGTCCCCGGGCTCAAAGA-3′ (SEQ ID NO:4).

Molecule | alkaline phosphatase activity (number of blue colored cells) [1] | ALP activity (presence of bluish/purple cells) [2] | ALP gene expression fold change ([3]; 10 μm agent) [fold] | ALP gene expression fold change ([3]; 1 μm agent) [fold]
C=C1CC[C@H](O)C/C1=C/C=C1\CCC[C@]2(C)[C@@H]([C@H](C)CCCC(C)C)CC[C@@H]12 [Cholecalciferol] | decreases | clearly diminish ALP activity | 0.350 ± 0.02 | –
CC[C@H](C)C(=O)O[C@H]1C[C@@H](C)C=C2C=C[C@H](C)[C@H](CC[C@@H]3C[C@@H](O)CC(=O)O3)[C@H]21 [Lovastatin] | decreases | clearly diminish ALP activity | – | 0.316 ± 0.02
Arsenic trioxide [ATO] | decreases | clearly diminish ALP activity | 0.105 ± 0.01 | –

From patent publication US10456409B2 (priority 2016, dated 2019)
